Data reported in US9850225B2, “Compounds useful as immunomodulators” (BRISTOL-MYERS SQUIBB COMPANY, priority 2014, dated 2017).

Target: PD-1/PD-L1 interaction (PD-1-Ig / PD-L1-His) (Homo sapiens (Human), UniProt Q9NZQ7)
Test: PD-1/PD-L1 Homogenous Time-Resolved Fluorescence (HTRF) binding assay
Details: PD-1/PD-L1 HTRF binding assay; value given as range class; read-out: Range or IC50
Method in brief: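 Human PD-L1-His (10 nM final) was pre-incubated with inhibitor for 15 min, then PD-1-Ig (20 nM final) was added for a further 15 min in dPBS with 0.1% BSA and 0.05% Tween-20. Binding was detected by HTRF using Eu-cryptate anti-Ig (1 nM) and APC anti-His (20 nM).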

Chain of PD-1/PD-L1 interaction (PD-1-Ig / PD-L1-His) (Q9NZQ7 other isoform, or with tags, fused parts or gaps): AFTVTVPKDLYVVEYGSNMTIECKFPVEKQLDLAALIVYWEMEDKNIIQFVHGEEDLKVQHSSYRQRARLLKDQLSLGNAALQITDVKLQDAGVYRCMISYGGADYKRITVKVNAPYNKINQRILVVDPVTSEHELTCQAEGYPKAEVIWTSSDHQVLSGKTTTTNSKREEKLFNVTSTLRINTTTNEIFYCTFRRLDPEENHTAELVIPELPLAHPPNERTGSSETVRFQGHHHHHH

Compound | IC50
CC(=O)NCCNCc1cc(Cl)c(OCc2cccc(-c3ccc4c(c3)OCCO4)c2C)cc1OCc1cccc(C#N)c1 [Example 1247, N-(2-((5-chloro-2-((3-cyanobenzyl)oxy)-4-((3-(2,3-dihydrobenzo[b][1,4]dioxin-6-yl)-2-methylbenzyl)oxy)benzyl)amino)ethyl)acetamide] | 0.6 to 10 nM
Cc1c(COc2cc(OCc3cccc(C#N)c3)c(CN[C@@H](Cc3ccccn3)C(=O)O)cc2Cl)cccc1-c1ccc2c(c1)OCCO2 [Example 1221, (S)-2-((5-chloro-2-((3-cyanobenzyl)oxy)-4-((3-(2,3-dihydrobenzo[b][1,4]dioxin-6-yl)-2-methylbenzyl)oxy)benzyl)amino)-3-(pyridin-2-yl)propanoic acid] | 0.6 to 10 nM
Cc1c(COc2ccc(CN[C@@H](CO)CC(=O)O)c(OCc3cccc(C#N)c3)c2)cccc1-c1ccccc1 [Example 1022, (R)-3-((2-((3-cyanobenzyl)oxy)-4-((2-methyl-[1,1′-biphenyl]-3-yl)methoxy)benzyl)amino)-4-hydroxybutanoic acid] | 0.6 to 10 nM
Cc1c(COc2cc(OCc3cccc(C#N)c3)c(CN[C@@H](C(=O)O)[C@@H](C)O)cc2Cl)cccc1-c1ccc2c(c1)OCCO2 [Example 1163, (2R,3R)-2-((5-chloro-2-((3-cyanobenzyl)oxy)-4-((3-(2,3-dihydrobenzo[b][1,4]dioxin-6-yl)-2-methylbenzyl)oxy)benzyl)amino)-3-hydroxybutanoic acid] | 0.6 to 10 nM
CC(=O)NCCNCc1ccc(OCc2cccc(-c3ccc4c(c3)OCCO4)c2C)cc1OCc1cc(C#N)ccn1 [Example 1130, N-(2-(2-((4-cyanopyridin-2-yl)methoxy)-4-(3-(2,3-dihydrobenzo[b][1,4]dioxin-6-yl)-2-methylbenzyloxy)benzylamino)ethyl)acetamide] | 10 to 100 nM
Cc1c(COc2ccc(CN[C@H](CO)CC(=O)O)c(OCc3cccc(C#N)c3)c2)cccc1-c1ccc2c(c1)OCCO2 [Example 1126, (S)-3-((2-((3-cyanobenzyl)oxy)-4-((3-(2,3-dihydrobenzo[b][1,4]dioxin-6-yl)-2-methylbenzyl)oxy)benzyl)amino)-4-hydroxybutanoic acid] | 0.6 to 10 nM
Cc1c(COc2cc(OCc3cncc(C#N)c3)c(CN[C@@](C)(CO)C(=O)O)cc2Br)cccc1-c1ccc2c(c1)OCCO2 [Example 1321, (S)-2-(5-bromo-2-((5-cyanopyridin-3-yl)methoxy)-4-(3-(2,3-dihydrobenzo[b][1,4]dioxin-6-yl)-2-methylbenzyloxy)benzylamino)-3-hydroxy-2-methylpropanoic acid] | 0.6 to 10 nM
Cc1c(COc2cc(OCc3cncc(C#N)c3)c(CN3CCCC[C@H]3C(=O)O)cc2F)cccc1-c1ccc2c(c1)OCCO2 [Example 3002] | 0.6 to 10 nM
CC(=O)NCCNCc1ccc(OCc2cccc(-c3ccccc3)c2C)cc1OCc1cc(C(F)(F)F)cc(C(F)(F)F)c1 [Example 1061, N-(2-((2-((3,5-bis(trifluoromethyl)benzyl)oxy)-4-((2-methyl-[1,1′-biphenyl]-3-yl)methoxy)benzyl)amino)ethyl)acetamide] | 100 to 20000 nM
CC(=O)NCCNCc1cc(C)c(OCc2cccc(-c3ccc4c(c3)OCCO4)c2C)cc1OCc1cccc(C#N)c1 [Example 1264, N-(2-((2-((3-cyanobenzyl)oxy)-4-((3-(2,3-dihydrobenzo[b][1,4]dioxin-6-yl)-2-methylbenzyl)oxy)-5-methylbenzyl)amino)ethyl)acetamide] | 0.6 to 10 nM
N#Cc1cccc(COc2cc(OCc3cccc(-c4ccc5c(c4)OCCO5)c3C#N)c(Cl)cc2CN[C@H](CO)C(=O)O)c1 [Example 1242, (R)-2-((5-chloro-4-((2-cyano-3-(2,3-dihydrobenzo[b][1,4]dioxin-6-yl)benzyl)oxy)-2-((3-cyanobenzyl)oxy)benzyl)amino)-3-hydroxypropanoic acid] | 0.6 to 10 nM
Cc1cc(CN2CCCC[C@H]2C(=O)O)c(OCCCCC#N)cc1OCc1cccc(-c2ccc3c(c2)OCCO3)c1C [Example 1296, (S)-1-(2-(4-cyanobutoxy)-4-(3-(2,3-dihydrobenzo[b][1,4]dioxin-6-yl)-2-methylbenzyloxy)-5-methylbenzyl)piperidine-2-carboxylic acid] | 10 to 100 nM
CCc1cc(CNCCNC(C)=O)c(OCc2cccc(C#N)c2)cc1OCc1cccc(-c2ccc3c(c2)OCCO3)c1C [Example 1289, N-(2-(2-(3-cyanobenzyloxy)-4-(3-(2,3-dihydrobenzo[b][1,4]dioxin-6-yl)-2-methylbenzyloxy)-5-ethylbenzylamino)ethyl)acetamide] | 0.6 to 10 nM
Cc1cc(CN[C@@](C)(CO)C(=O)O)c(OCc2cncc(C#N)c2)cc1OCc1cccc(-c2ccc3c(c2)OCCO3)c1C#N [Example 1308, (S)-2-(4-(2-cyano-3-(2,3-dihydrobenzo[b][1,4]dioxin-6-yl)benzyloxy)-2-((5-cyanopyridin-3-yl)methoxy)-5-methylbenzylamino)-3-hydroxy-2-methylpropanoic acid] | 0.6 to 10 nM
Cc1c(COc2cc(OCc3cncc(C#N)c3)c(CN[C@@H](CCCCN)C(=O)O)cc2Cl)cccc1-c1ccc2c(c1)OCCO2 [Example 2004, (S)-6-amino-2-((5-chloro-2-((5-cyanopyridin-3-yl)methoxy)-4-((3-(2,3-dihydrobenzo[b][1,4]dioxin-6-yl)-2-methylbenzyl)oxy)benzyl)amino)hexanoic acid] | 0.6 to 10 nM
Cc1c(COc2cc(OCc3cncc(C#N)c3)c(CN3CCCC[C@H]3C(=O)NS(=O)(=O)N(C)C)cc2Cl)cccc1-c1ccc2c(c1)OCCO2 [Example 1257, (S)-1-(5-chloro-2-((5-cyanopyridin-3-yl)methoxy)-4-((3-(2,3-dihydrobenzo[b][1,4]dioxin-6-yl)-2-methylbenzyl)oxy)benzyl)-N—(N,N-dimethylsulfamoyl)piperidine-2-carboxamide] | 10 to 100 nM
Cc1c(COc2ccc(CN[C@@H](CO)C(=O)O)c(OCc3cccc(C#N)c3)c2)cccc1-c1ccccc1 [Example 1018, (S)-2-((2-((3-cyanobenzyl)oxy)-4-((2-methyl-[1,1′-biphenyl]-3-yl)methoxy)benzyl)amino)-3-hydroxypropanoic acid] | 0.6 to 10 nM

The remaining lines, values ahead:

IC50 | Compound
100 to 20000 nM | CC(=O)NCCNCc1ccc(OCc2cccc(-c3ccccc3)c2C)cc1OCc1ccc(F)c(F)c1 [Example 1059, N-(2-((2-((3,4-difluorobenzyl)oxy)-4-((2-methyl-[1,1′-biphenyl]-3-yl)methoxy)benzyl)amino)ethyl)acetamide]
0.6 to 10 nM | Cc1cc(CN[C@](C)(CO)C(=O)O)c(OCc2cccnc2)cc1OCc1cccc(-c2ccc3c(c2)OCCO3)c1C [Example 1281, (R)-2-((4-((3-(2,3-dihydrobenzo[b][1,4]dioxin-6-yl)-2-methylbenzyl)oxy)-5-methyl-2-(pyridin-3-ylmethoxy)benzyl)amino)-3-hydroxy-2-methylpropanoic acid]
100 to 20000 nM | COC(=O)CCCOc1cc(OCc2cccc(-c3ccccc3)c2C)ccc1CNCCNC(C)=O [Example 1036, methyl 4-(2-(((2-acetamidoethyl)amino)methyl)-5-((2-methyl-[1,1′-biphenyl]-3-yl)methoxy)phenoxy)butanoate]
0.6 to 10 nM | Cc1cc(CN[C@](C)(CO)C(=O)O)c(OCc2ccc(F)c(C#N)c2)cc1OCc1cccc(-c2ccc3c(c2)OCCO3)c1C [Example 1273, (R)-2-((2-((3-cyano-4-fluorobenzyl)oxy)-4-((3-(2,3-dihydrobenzo[b][1,4]dioxin-6-yl)-2-methylbenzyl)oxy)-5-methylbenzyl)amino)-3-hydroxy-2-methylpropanoic acid]
0.6 to 10 nM | Cc1cc(CN[C@@H](CO)C(=O)O)c(OCc2cncc(C#N)c2)cc1OCc1cccc(-c2ccc3c(c2)OCCO3)c1C [Example 1284, (S)-2-(2-((5-cyanopyridin-3-yl)methoxy)-4-(3-(2,3-dihydrobenzo[b][1,4]dioxin-6-yl)-2-methylbenzyloxy)-5-methylbenzylamino)-3-hydroxypropanoic acid]
100 to 20000 nM | CC(=O)NCCNCc1ccc(OCc2cccc(-c3ccccc3)c2C)cc1OCc1ccc(C)cc1 [Example 1047, N-(2-((4-((2-methyl-[1,1′-biphenyl]-3-yl)methoxy)-2-((4-methylbenzyl)oxy)benzyl)amino)ethyl)acetamide]
10 to 100 nM | COc1cc(OCc2cccc(-c3ccccc3)c2C)cc(OCc2cccc(C#N)c2)c1CN[C@@H](C(=O)O)[C@@H](C)O [Example 1138, (2R,3R)-2-((2-((3-cyanobenzyl)oxy)-6-methoxy-4-((2-methyl-[1,1′-biphenyl]-3-yl)methoxy)benzyl)amino)-3-hydroxybutanoic acid]
0.6 to 10 nM | Cc1c(COc2cc(OCc3cccc(C#N)c3)c(CN[C@@H](CC[S+](C)[O-])C(=O)O)cc2Cl)cccc1-c1ccc2c(c1)OCCO2 (stereo partly drawn) [Example 1174, (2S)-2-((5-chloro-2-((3-cyanobenzyl)oxy)-4-((3-(2,3-dihydrobenzo[b][1,4]dioxin-6-yl)-2-methylbenzyl)oxy)benzyl)amino)-4-(methylsulfinyl)butanoic acid]
100 to 20000 nM | CC(=O)NCCNCc1ccc(OCc2cccc(-c3ccccc3)c2C)cc1OCc1ccccc1CO [Example 1038, N-(2-((2-((2-(hydroxymethyl)benzyl)oxy)-4-((2-methyl-[1,1′-biphenyl]-3-yl)methoxy)benzyl)amino)ethyl)acetamide]
10 to 100 nM | Cc1c(COc2cc(OCc3cccc(C#N)c3)c(CN[C@H](COCc3ccccc3)C(=O)O)cc2Cl)cccc1-c1ccc2c(c1)OCCO2 [Example 1194, (R)-3-(benzyloxy)-2-((5-chloro-2-((3-cyanobenzyl)oxy)-4-((3-(2,3-dihydrobenzo[b][1,4]dioxin-6-yl)-2-methylbenzyl)oxy)benzyl)amino)propanoic acid]
100 to 20000 nM | CC(=O)NCCNCc1ccc(OCc2cccc(-c3ccccc3)c2C)cc1OCc1cccc(C(=O)c2ccccc2)c1 [Example 1073, N-(2-((2-((3-benzoylbenzyl)oxy)-4-((2-methyl-[1,1′-biphenyl]-3-yl)methoxy)benzyl)amino)ethyl)acetamide]
